{"source": "paper PMC4434089", "about": "(Biotechnology, Biotechnological Equipment, 2014)", "key": {"Aβ [1]": {"test_system": "Aβ", "details": "SPR, cited from earlier work", "from_the_text": "This was further supported by a recent SPR-based Aβ study that determined a ka of 0.01 complexes per second for Aβ association following first-order kinetics, whilst the kd wa ..."}, "Aβ [2]": {"test_system": "Aβ", "details": "cited from earlier work", "from_the_text": "According to a model developed by Petkova et al.,[81] the 12-21 and 30-40 regions of the Aβ peptide form the β-she ..."}, "[3]": {"test_system": "sensor chip-bound biotinylated amylin", "set-up": "method as in PMID 14565847", "details": "insulin over sensor chip-bound biotinylated amylin; cited from earlier work"}, "full length amylin": {"test_system": "full length amylin", "set-up": "method as in 2 sources, one per row (each row's own in cited_ref): ref 58 = [58]; PMID 14565847; doi:10.1042/BJ20030852; Jaikaran E Nilsson MR Clark A Biochem J. 2004 377 709 716 14565847 10.1042/BJ20030852 PMC1223903 ||| ref 68, 93 = [68]; PMID 12054816; doi:10.1016/S0022-2836(02)00164-X; Scrocchi LA Chen Y Waschuk S Wang F Cheung S Darabie AA McLaurin J Fraser PE J Mol Biol. 2002 318 697 706 12054816 10.1016/S0022-2836(02)00164-X || [93]; PMID 12648568; doi:10.1016/s1047-8477(02)00630-5; Scrocchi LA Ha K Chen Y Wu L Wang F Fraser PE J Struct Biol. 2003 141 218 227 http://dx.doi.org/10.1016/s1047-8477(02)00630-5 12648568 10.1016/s1047-8477(02)00630-5", "details": "cited from earlier work"}, "amylin": {"test_system": "amylin", "test": "NTA of amylin aggregation, alone or with amylin derivatives", "type": "biochemical, human", "protocol": "NTA measurements were performed with a NanoSight LM20 instrument (NanoSight, United Kingdom) equipped with a 640 nm laser and a temperature controlled sample chamber. […] The sample temperature was maintained at 37 °C for the entire duration of the experiment. These experimental conditions were similar to that used for a previously reported cytotoxicity experiment,[73] thus allowing correlation of results obtained from the two techniques. […] Once again, samples were maintained at 37 °C and 60 s video footage were recorded every 10 min for the first hour and then at 24 h. All videos were captured with the single shutter and gain modes. Analysis was performed using NanoSight NTA version 2.2 software with a viscosity setting of 0.70."}, "[4]": {"test_system": "amylin-mediated cytotoxicity", "set-up": "method as in PMID 20093026", "details": "cited from earlier work"}}, "note": "Read-outs that look alike come from different tables or passages of the source. Marks after values point to notes of the source that are not given here.", "data": [{"substance": "Aβ1–40: amyloid beta; SPR-derived kinetics were generated using the 1–40 form of Aβ", "values": [{"measurement": "Aβ association rate", "setting": "Aβ [1]; conditions similar to present study", "value": 0.01, "unit": "complexes per second"}, {"measurement": "Aβ dissociation kd", "setting": "Aβ [1]; global fit, first-order kinetic model", "value": 0.00223, "unit": "s⁻¹"}, {"measurement": "Aβ dissociation kd", "setting": "Aβ [1]; printed spread ± 1.3 × 10^−4 s^−1", "value": 0.00092, "unit": "s⁻¹"}, {"measurement": "Aβ dissociation time", "setting": "Aβ [1]; ref 39 (by order of citation)", "value": 7.5, "unit": "min"}, {"measurement": "Aβ dissociation time", "setting": "Aβ [1]; ref 80 (by order of citation)", "value": 18, "unit": "min"}, {"measurement": "aggregation rate compared with 1–42 form of Aβ", "setting": "Aβ [2]", "value": "aggregate much more slowly than the 1–42 form of Aβ"}]}, {"substance": "insulin: insulin, binding to sensor chip-bound biotinylated amylin", "values": [{"measurement": "response change during binding to biotinylated amylin", "setting": "[3]", "value": 15, "unit": "RUs"}, {"measurement": "effect on fibril formation", "setting": "full length amylin", "value": "inhibit fibril formation"}]}, {"substance": "NFGAIL [n4]", "values": [{"measurement": "implied effect on fibrillogenesis of amylin", "setting": "amylin; NTA compared with previously published reports", "value": "increase fibrillogenesis of amylin to an aggregate that is larger than 1000 nm"}, {"measurement": "Concentration of aggregates 100–150 nm, 10 min", "setting": "amylin; NTA, 10 min, 37 °C, amylin 50 μmol L^−1 alone (A) or with 250 μmol L^−1 derivative, 10 mmol L^−1 sodium phosphate, 50 mmol L^−1 NaCl, pH 7.4, duplicate, p < 0.05 less than A: n1, n5, m5", "value": "3.8 ×10^7 aggregates/mL"}, {"measurement": "Concentration of aggregates 200–300 nm, 10 min", "setting": "amylin; NTA, 10 min, 37 °C, amylin 50 μmol L^−1 alone (A) or with 250 μmol L^−1 derivative, pH 7.4, duplicate, p < 0.05 less than A: n1, n3, n5, m1, m2, m3, m4, m5", "value": "5.1 ×10^7 aggregates/mL"}, {"measurement": "Concentration of aggregates 150–200 nm, 10 min", "setting": "amylin; NTA, 10 min, 37 °C, amylin 50 μmol L^−1 alone (A) or with 250 μmol L^−1 derivative, pH 7.4, duplicate, p < 0.05 less than A: n1, n5, m5", "value": "2.3 ×10^7 aggregates/mL"}, {"measurement": "concentrations of 100–150, […]–200 and 200–300 nm aggregates at 10 min vs amylin only", "setting": "amylin; NTA, 10 min, amylin:derivative 50:250 μmol L^−1, unpaired t-test", "value": "not significantly different"}, {"measurement": "Concentration of aggregates 100–150 nm, 24 h", "setting": "amylin; NTA, 24 h, 37 °C, amylin 50 μmol L^−1 alone (A) or with 250 μmol L^−1 derivative, pH 7.4, duplicate, p < 0.05 less than A: n1, n2, m5, significantly more: m2", "value": "1.7 ×10^7 aggregates/mL"}, {"measurement": "Concentration of aggregates 200–300 nm, 24 h", "setting": "amylin; NTA, 24 h, 37 °C, amylin 50 μmol L^−1 alone (A) or with 250 μmol L^−1 derivative, pH 7.4, duplicate, p < 0.05 less than A: n1, n2, n3, n4, n5, m5", "value": "1.7* ×10^7 aggregates/mL"}, {"measurement": "Concentration of aggregates 150–200 nm, 24 h", "setting": "amylin; NTA, 24 h, 37 °C, amylin 50 μmol L^−1 alone (A) or with 250 μmol L^−1 derivative, pH 7.4, duplicate, p < 0.05 less than A: n1, n2, n5, m5", "value": "1.8 ×10^7 aggregates/mL"}, {"measurement": "number of 200–300 nm aggregates at 24 h vs amylin only", "setting": "amylin; NTA, 24 h, amylin:derivative 50:250 μmol L^−1, p < 0.05", "value": "significantly lower than in samples containing amylin only"}, {"measurement": "reduction of amylin-mediated cytotoxicity", "setting": "[4]", "value": "more than 40%"}, {"measurement": "fibril formation of full length amylin in presence of derivative", "setting": "full length amylin", "value": "fibril formation of full length amylin was enhanced"}]}]}
